{
  "source": "patent US20020169205A1",
  "about": "“Implantation rates after in vitro fertilization, and treatment of infertility and early pregnancy loss with a nitric oxide donor or substrate alone or in combination with progesterone, and a method for contraception with nitric oxide inhibitors in combination with antiprogestins or other agents” (priority 1998, published 2002)",
  "key": {"[1]": {"system": "implantation in rats", "assay": "Effects of L-NAME on implantation in pregnant rats (FIG. 1 and FIG. 2)", "type": "in vivo", "description": "The animals were treated with 25 and 50 mg/animal/day L-NAME administered via continuous s.c. infusion from day 1 post coitum (p.c.) until day 7 p.c The autopsy was performed on day 12 p.c.\nThe animals were treated with 25 and 50 mg/animal/day L-NAME administered via continuous s.c. infusion on day 5-7 (p.c.). The autopsy was performed on either day 9 p.c. or day 12 p.c.\nIn the experiments whose results are shown in FIG. 1, pregnant rats (n=6/group) were treated with 25 and 50 mg/animal/day L-NAME from day 1 p.c. until day 7 p.c., i.e. during the period of pre-implantation and early implantation (in rats implantation takes place on day 5 p.c. ). The control animals were treated with the vehicle. During autopsy (days 9 and 12 p.c.) the implantation sites were assessed macroscopically, their diameter was measured, and the weights of isolated implantation sites (embryonic and placental tissues) were recorded. FIG. 2 presents results from a second study In pregnant rats in which L-NAME (25 and 50 mg/anilal/day) treatment was performed on days 5-7 p.c., i.e. shortly after nidation had taken place. The autopsy was performed on day 12 p.c. Implantation showing haemorrhagic changes were defined as pathological implantation sites."}, "[2]": {"system": "implantation", "assay": "Other studies: L-NAME effects on implantation combined with low-dose onapristone", "type": "in vivo", "settings": "onapristone low-dose 0.1-0.3 mg/animal/day together with L-NAME"}, "[3]": {"system": "uterine strips from rats at mid to near term gestation", "settings": "cited from earlier work"}, "[4]": {"system": "uterine blood flow", "settings": "low dose aspirin, patients with impeded blood flow; cited from earlier work"}, "[5]": {"settings": "25 and 50 mg/animal/day s.c. infusion, autopsy day 9 or 12 p.c."}},
  "data": [
    {"smiles": "COC(=O)[C@@H](N)CCCNC(=N)N[N+](=O)[O-]", "note": "[L-NAME, NG-nitro-L-arginine methyl ester]", "values": [
      {"measurement": "effect on implantation", "setting": "[1]; 25 and 50 mg/animal/day continuous s.c. infusion, day 1-7 p.c. or days 5-7 p.c.", "value": "profound effect on implantation"},
      {"measurement": "size of the implantation sites", "setting": "[1]; [5]", "value": "dose-dependent inhibition"},
      {"measurement": "weight of the implantation sites", "setting": "[1]; [5]", "value": "dose-dependent inhibition"},
      {"measurement": "pathological changes in the implantation sites", "setting": "[1]; 25 and 50 mg/animal/day s.c. infusion, haemorrhagic changes defined as pathological", "value": "induced pathological changes in the implantation sites (mainly haemorrhages)"}
    ]},
    {"smiles": "CN(C)c1ccc([C@H]2C[C@]3(C)[C@@H](CC[C@]3(O)CCCO)[C@@H]3CCC4=CC(=O)CCC4=C32)cc1", "note": "[onapristone]", "values": [
      {"measurement": "L-NAME-induced effects on implantation with added antiprogestin", "setting": "[2]", "value": "enhanced"}
    ]},
    {"smiles": "N=C(N)NCCC[C@H](N)C(=O)O", "note": "[L-arginine]", "values": [
      {"measurement": "relaxation of spontaneous activity of uterine strips", "setting": "[3]", "value": "rapid and substantial relaxation"}
    ]},
    {"smiles": "CC(=O)Oc1ccccc1C(=O)O", "note": "[aspirin]", "values": [
      {"measurement": "effect on uterine blood flow", "setting": "[4]", "value": "only marginal"}
    ]}
  ]
}
